The record followed here is US20160021873A1, “STEM CELL PRESERVATION MEDIUM, STEM CELL PRESERVATION METHOD, AND STEM CELL PRESERVATION SYSTEM” (KYOKUTO PHARMACEUTICAL INDUSTRIAL CO., LTD., priority 2012, published 2016).

Each structure is given as a SMILES string.

This experiment concerns human iPS cells. In words: survival rate on ROCK inhibitor (+) versus (-) cultivation after thawing. The class given is cell-based. As to conditions: 10 μM Y-27632 for two days then three days without; rapid thawing with warm culture medium; ROCK inhibitor (-) cultivation about 30%. Here is the method: Cultivation and freezing in the stem cell preservation method were carried out by procedures similar to those of Embodiment 2. Regarding thawing, after a warm culture medium was used to conduct rapid thawing, difference of survival rate was measured depending on whether the ROCK inhibitor 10 μM Y-27632 was added or not. Where the inhibitor was added, in the presence of Y-27632, cultivation was performed for two days, thereafter, cultivation was performed additionally for three days in a culture medium free of Y-27632. On the other hand, where no inhibitor was added, cultivation was performed for five days in a normal culture medium. On both the cultivation, a survival rate was measured according to the method described in Embodiment 2.

With `C[C@@H](N)[C@H]1CC[C@H](C(=O)Nc2ccncc2)CC1` [ROCK inhibitor, Y-27632], the survival rate entry was “about 120%”.
